“And” between values parts separate entries of the source, which are not always exact repeats. Equal values may be shown once.
Columns and labels:
Format in all cases: biochemical
[1] = target: T1, β-secretase (BACE) (Homo sapiens, UniProt P56817); assay: BACE Assay-2 (FS1 substrate, IC50 and Ki); details: procedure of Example 159, FS1 substrate
T1 construct: purchased Panvera
Experimental: (§1) The FS1-substrate stock solution was prepared in DMSO as a 10 mg/mL solution. The FS1-substrate working solution was prepared by diluting the 10 mg/mL stock solution with substrate assay buffer to a final concentration of […]. The β-secretase (BACE) working solution was prepared by diluting a 0.83 mg/mL BACE stock solution with enzyme assay buffer to a final concentration of 4 μg/mL.
Test compounds were dissolved in DMSO at 10 mM.
(§2) The procedure for this assay was as follows: 15 μL of BACE working solution was pipetted into each well of a 96-well plate. To each well was then pipetted 2 μL of test compound at the selected concentration. Test compound and BACE were then mixed with a pipettor and incubated for 20 min at room temperature. To each well was then added 10 μL of the FS1 substrate working solution.
(§3) The procedure for the positive control was as follows:15 μL of BACE working solution was pipetted into each well to be used as a positive control. To each well was then pipetted 2 μL of vehicle. Vehicle and BACE were then mixed with a pipettor and incubated for 20 min at room temperature. To each well was then added 10 μL of the FS1 substrate working solution.
For test compounds, measured at multiple concentrations, the measured T0 and T60 values were used to calculate an IC50 value using Graphpad Software (or PIR). For test compounds, Ki inhibition was determined as follows: For each compound concentration and positive control, rate of cleavage of substrate (Vi, where i=compound concentration in μM) was determined as Δ Fluorescence/Δ time (min). Cleavage rates (Vi) were plotted as a function of inhibitor concentration in μM [I]. The Ki was then determined by fitting the following equation to the graph of [I] vs Vi Y=aVmax/(50+24*(1+X/Ki)),

[2] = target: T1, β-secretase (BACE); assay: BACE % Inhibition Assay ((Aedens)-[…]-(Dabcyl K-amide) substrate); details: % error ±10%
Experimental: as §1, with “substrate” for “FS1-substrate”
Test compounds were dissolved in DMSO to 10 mM.
as §2, with “The screening” for “The”, “the” for “the FS1”, “solution. The plates were then incubated for 1 hour at room temperature.” for “solution.”
The procedure for the blank was as follows. 15 μL of assay buffer was pipetted into each well to be used as a blank control. To each well was then added 2 μL of vehicle and 10 μL of substrate working solution. The plates were then incubated for 1 hour at room temperature.
as §3, with “follows: 15 μl” for “follows:15 μL”, “the” for “the FS1”, “solution. The plates were the incubated for 1 hour at room temperature.” for “solution.”
For test compounds, % inhibition was determined at each concentration as follows: […]

[3] = target: T1, β-secretase (BACE); assay: BACE Assay-1 (MCA-substrate, IC50); details: procedure of Example 158
Experimental: The following standards are reagents were used in this assay: Sodium Citrate trisodium salt dihydrate (Sigma), Citric Acid monohydrate (Merck), PEG8000 (Sigma), MCA-substrate (Bachem), β-secretase (BACE) (Panvera), 96-well plate zwart (Costar (Elscolab)), StatVal (Bachem).
The following standard assay buffer solution was prepared and used in this assay: 0.05 M, pH 5.0 mixture of sodium citrate trisodium salt dihydrate (9.56 g), citric acid monohydrate (3.68 g) and PEG8000 (0.50 g).
The MCA-substrate stock solution was prepared by mixing 10 mg MCA-substrate with 5 mL DMSO for a final solution concentration of 2.0 mg/mL. The substrate work solution was prepared by mixing 0.1 mL substrate in 1.90 mL assay buffer for a final concentration of 0.05 mM. The β-secretase (BACE) work solution was prepared by mixing 8 μL BACE in 2 mL assay buffer for a final concentration of 10 µg/mL.
The screen procedure for this assay was as follows. 60 μL of assay buffer was pippeted into each well of a 96-well plate. To each well was then pipetted 1 μL of test compound at the selected concentration. To each well was then added 20 μL of the β-secretase work solution and […] of the MCA-substrate stock solution.
The procedure for the blank was as follows. 80 μL of assay buffer was pipetted into each well to be used as a blank control. To each well was then added 1 μL of DMSO and 20 μL of MCA-substrate solution in each well.
The procedure for the positive control was as follows. 60 μL of assay buffer was pipetted into each well to be used as a positive control. To each well was then added 1 μL of DMSO, 20 μL of BACE work solution and 20 μL of MCA-substrate stock solution.
For test compounds, measured at multiple concentrations, the measured T0 and T60 values were used to calculate an IC50 value using Graphpad Software (or PIR).

[4] = target: T1, β-secretase (BACE); assay: BACE FS1 % Inhibition Assay; details: read-out: % Inhibition (FS)
Method in brief: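 Percent inhibition per compound concentration was referenced to vehicle-treated enzyme and no-enzyme wells. Enzyme at a 4 μg/mL working stock plus compound was mixed for 20 min at room temperature before the FS1 substrate (300 μg/mL working stock) was added for a 1 h room-temperature reaction.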

T1 sequence (P56817 46-501): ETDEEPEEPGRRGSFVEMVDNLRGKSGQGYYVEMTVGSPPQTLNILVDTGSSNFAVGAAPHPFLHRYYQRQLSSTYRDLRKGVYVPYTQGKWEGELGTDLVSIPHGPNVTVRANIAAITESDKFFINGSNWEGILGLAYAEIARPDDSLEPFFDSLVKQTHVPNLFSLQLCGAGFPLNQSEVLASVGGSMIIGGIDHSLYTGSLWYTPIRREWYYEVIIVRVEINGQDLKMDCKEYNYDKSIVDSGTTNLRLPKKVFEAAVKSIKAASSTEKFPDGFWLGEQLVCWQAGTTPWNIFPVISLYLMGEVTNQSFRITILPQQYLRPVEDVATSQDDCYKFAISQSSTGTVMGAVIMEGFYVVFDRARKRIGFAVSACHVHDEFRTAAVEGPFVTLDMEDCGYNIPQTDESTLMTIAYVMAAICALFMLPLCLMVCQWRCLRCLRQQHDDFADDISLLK

Row | Ki [1] | IC50 [3] [µM] | inhibition at 0.3 µM ([4]; 0.3 μM compound, FS1 substrate) [%] | inhibition at 1 µM ([4]; 1 μM compound, FS1 substrate) [%] | inhibition at 3 µM ([4]; 3 μM compound, FS1 substrate) [%] | SMILES | other results
1 | 0.063 µM |  |  |  |  | CC(C)CCC(=O)NCC(C1CCCCC1)N1Cc2cc(Oc3ccccc3)ccc2N=C1N (stereo not shown) [Compound 388] | inhibition at 0.3 µM ([2]; 0.3 μM compound): 107%; inhibition at 1 µM ([2]; 1 μM compound): 119%; inhibition at 3 µM ([2]; 3 μM compound): 119%
2 |  | 2.8 |  |  |  | CCCN1Cc2cc(Oc3cccc(CNCCCc4ccccc4)c3)ccc2N=C1N [Compound 430] | 
3 |  | 1.3 |  |  |  | CCCN1Cc2cc(Oc3cccc(CN(C)Cc4c(C)cc(C)cc4C)c3)ccc2N=C1N [Compound 464] | 
4 | 0.74 µM | 1.1 |  |  |  | NC1=Nc2ccc(Oc3ccccc3)cc2CN1[C@H](CNC(=O)C1CCCCC1)C1CCCCC1 [Compound 484] | inhibition at 0.3 µM ([4]; 0.3 μM test compound): < 30%; inhibition at 1 µM ([4]; 1 μM test compound): < 30%; inhibition at 3 µM ([4]; 3 μM test compound): 62%
5 | 0.018 µM and 0.0075 µM | 0.03 |  |  |  | COc1ccccc1-c1ccc2c(c1)CN([C@@H](CCC(=O)N(C)C1CCCCC1)C1CCCCC1)C(N)=N2 [Compound 506] | inhibition at 0.3 µM ([4]; 0.3 μM test compound): 106%; inhibition at 1 µM ([4]; 1 μM test compound): 115%; inhibition at 3 µM ([4]; 3 μM test compound): 128%
6 |  | 0.17 |  |  |  | CCCN1Cc2cc(Oc3cccc(CNC(=O)c4c(C)cc(C)cc4C)c3)ccc2N=C1N [Compound 533] | 
7 | 0.026 µM |  |  |  |  | CC(C)C(CNC(=O)C12CC3CC(CC(C3)C1)C2)N1Cc2cc(Oc3ccccc3)ccc2N=C1N (stereo not shown) [Compound 562] | inhibition at 0.3 µM ([4]; 0.3 μM test compound): 106%; inhibition at 1 µM ([4]; 1 μM test compound): 118%; inhibition at 3 µM ([4]; 3 μM test compound): 128%
8 | 0.33 µM |  |  |  |  | NC1=Nc2ccc(-c3ccccc3)cc2CN1CCNC(=O)Cc1ccccc1 [Compound 595] | inhibition at 0.3 µM ([4]; 0.3 μM test compound): 32%; inhibition at 1 µM ([4]; 1 μM test compound): 70%; inhibition at 3 µM ([4]; 3 μM test compound): 104%
9 | 0.3 µM |  | < 30 | 68 | 126 | CN(C(=O)CC[C@@H](C1CCCCC1)N1Cc2cc(Oc3ccccc3)ccc2N=C1N)C1CCC2(CC1)OCCO2 [Compound 710] | 
10 | 0.45 µM |  | < 30 | 43 | 113 | CN(C(=O)CC[C@@H](C1CCCCC1)N1Cc2cc(Oc3ccccc3)ccc2N=C1N)C1CCC(=O)CC1 [Compound 711] | 
11 | 0.38 µM |  | 43 | 58 | 97 | CC(C)N1CCC(N(C)C(=O)CC[C@@H](C2CCCCC2)N2Cc3cc(Oc4ccccc4)ccc3N=C2N)CC1 [Compound 728] | 
12 | 0.088 µM |  | 41 | 74 | 104 | COC(=O)[C@H]1CC[C@H](NC(=O)CC[C@@H](C2CCOCC2)N2Cc3cc(Oc4ccccc4)ccc3N=C2N)CC1 [Compound 747] | 
13 | 0.221 µM |  | 45 | 81 | 109 | CN(CCCCC(=O)O)C(=O)CC[C@@H](C1CCCCC1)N1Cc2cc(Oc3ccccc3)ccc2N=C1N [Compound 752] | 
14 | 0.038 µM |  | 106 | 109 | 121 | CN(C(=O)CCC(C1CCCCC1)N1Cc2cc(Oc3ccccc3)ccc2N=C1N)C(COCc1ccccc1)C(=O)O (stereo not shown) [Compound 781] | 

From patent publication US8426429B2, “2-amino-quinazoline derivatives useful as inhibitors of β-secretase (BACE)” (Jansssen Pharmaceutica N.V., priority 2004, dated 2013)
